According to the supplement of paper PMC10307832:

Assays:
Assay in all cases: relative viability (nuclei count vs DMSO), 5 days (fraction); higher = more cells survive
[1] = compound: C1=CC2=C(C=CC(=C2)C=C3C(=O)NC(=NCC4=CC=CS4)S3)N=C1 [RO-3306] + Cc1nc(NC(=O)N2CCC[C@H]2C(N)=O)sc1-c1ccnc(C(C)(C)C(F)(F)F)c1 [Alpelisib] (partner 2 µM)
How it was run: (§1)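 Relative viability divides the nuclei count in treated wells by that in vehicle wells. Lung cancer cell lines were seeded in 1536-well plates, dosed by pin tool the next day, and fixed and stained after 5 days in one step with final 0.05% Triton X-100, 1% formaldehyde and 1 ug/ml Hoechst. Dosing was a single drug or a fixed anchor-drug dose plus five library-drug doses (not always all listed) in √10 steps, and values are medians of duplicate plates imaged at 4×.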

[2] = compound: O=S(=O)(c1ccccc1)N(CC(F)(F)F)c1ccc(C(O)(C(F)(F)F)C(F)(F)F)cc1 + CC(=O)Nc1cccc(-n2c(=O)n(C3CC3)c(=O)c3c(Nc4ccc(I)cc4F)n(C)c(=O)c(C)c32)c1 [Trametinib] (partner 0.02 µM)
How it was run: as §1

[3] = compound: C1=CC2=C(C=CC(=C2)C=C3C(=O)NC(=NCC4=CC=CS4)S3)N=C1 [RO-3306] + Nc1ncn([C@H]2C[C@H](O)[C@@H](CO)O2)c(=O)n1 [Decitabine] (partner 2 µM)
How it was run: as §1

[4] = compound: O=S(=O)(c1ccccc1)N(CC(F)(F)F)c1ccc(C(O)(C(F)(F)F)C(F)(F)F)cc1 + COc1cc2c(Oc3ccc(NC(=O)C4(C(=O)Nc5ccc(F)cc5)CC4)cc3F)ccnc2cc1OCCCN1CCOCC1 [Foretinib] (partner 0.25 µM)
How it was run: as §1

Cell Line	relative viability ([1]; first compound 0.01 µM)	relative viability ([1]; first compound 0.03162 µM)	relative viability ([1]; first compound 0.1 µM)	relative viability ([1]; first compound 0.3162 µM)	relative viability ([1]; first compound 1 µM)	relative viability ([2]; first compound 0.8 µM)	relative viability ([2]; first compound 2.53 µM)	relative viability ([2]; first compound 8 µM)	relative viability ([3]; first compound 0.01 µM)	relative viability ([3]; first compound 0.03162 µM)	relative viability ([3]; first compound 0.1 µM)	relative viability ([3]; first compound 0.3162 µM)	relative viability ([3]; first compound 1 µM)	relative viability ([4]; first compound 0.8 µM)	relative viability ([4]; first compound 2.53 µM)	relative viability ([4]; first compound 8 µM)
NCI-H1651	1.07	0.927	0.913	0.867	0.987	0.853	0.867	0.739	0.671	0.562	0.587	0.664	0.58	0.974	0.795	0.68
COR-L23	0.898		0.866	0.631	0.75	0.657	0.583	0.539	0.342	0.405	0.487	0.446	0.394	0.971	1.01	0.888
ABC-1	1.07	1.07	1.22	0.939	1.22				0.953	0.904	0.828	1.03	1.06	1.31	1.19	1.08
NCI-H1755	1.02	0.772	0.958	0.904	0.859	0.769	0.661	0.815	0.73	0.739	0.728	0.706	0.707	0.891	0.79	0.951
NCI-H2170	0.772	0.687	0.765	0.825	0.77	0.973	0.779	0.814	0.473	0.433	0.471	0.458	0.486	1.02	0.88	0.837
NCI-H23	0.729	0.685	0.573	0.69	0.517	0.392	0.379	0.343	0.338		0.334	0.341	0.301	1.02	1.16	1
NCI-H1395	1.12	1.22	1.1	1.03	1.02	1.13	1	0.965	0.663	0.699	0.656	0.68	0.724	0.924	0.862	0.994
LOU-NH91	0.7	0.705	0.764	0.708	0.671	0.919	0.844	0.914	0.829	0.787	0.796	0.823	0.79	0.999	0.884	0.937
NCI-H647	1.76	0.954	1.09	1.16	1.28	0.587	0.379	0.352	0.479	0.336	0.417	0.429	0.405	1.48	1.19	1.03
NCI-H522						0.607	0.781	0.689	0.736	0.544	0.712	0.775	0.638			
HCC-78	0.326	0.279	0.359	0.376	0.339	0.666	0.575	0.689	0.674	0.597	0.657	0.661	0.692	0.533	0.459	0.466
